Experimental data taken from patent publication US20250129135A1, “Multi-Agonist and Use Thereof” (priority 2021, published 2025).

What was measured:
[1] = molecular target: Human GLP-1R (Homo sapiens, UniProt P43220); settings: background statement; cited from earlier work
[2] = molecular target: GCG receptor (Homo sapiens, UniProt P47871); settings: background statement; cited from earlier work
[3] = 26 weeks, cited from earlier work
[4] = Phase II clinical study, cited from earlier work
[5] = test system: C57 BL/6J DIO mice; assay: In vivo pharmacodynamics in high-fat diet induced obesity (DIO) mice; design: species or system mouse; settings: Mean±SEM; for Weight change: Table 6-1; for LDL-C / TC (total cholesterol) / TG (plasma triglycerides): Table 7-1, Day 15
How it was run: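 DIO mice (60 kcal% fat diet) dosed subcutaneously in 1×PBS, 5 ml/kg, every three days for 15 days. Daily body weight and food intake as % change from baseline; day 15 fasting glucose, plasma TC, LDL-C, TG, insulin and liver TG. Mean±SEM, one-way ANOVA with Dunnett's versus vehicle.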

Chain of GCG receptor (P47871 26-477): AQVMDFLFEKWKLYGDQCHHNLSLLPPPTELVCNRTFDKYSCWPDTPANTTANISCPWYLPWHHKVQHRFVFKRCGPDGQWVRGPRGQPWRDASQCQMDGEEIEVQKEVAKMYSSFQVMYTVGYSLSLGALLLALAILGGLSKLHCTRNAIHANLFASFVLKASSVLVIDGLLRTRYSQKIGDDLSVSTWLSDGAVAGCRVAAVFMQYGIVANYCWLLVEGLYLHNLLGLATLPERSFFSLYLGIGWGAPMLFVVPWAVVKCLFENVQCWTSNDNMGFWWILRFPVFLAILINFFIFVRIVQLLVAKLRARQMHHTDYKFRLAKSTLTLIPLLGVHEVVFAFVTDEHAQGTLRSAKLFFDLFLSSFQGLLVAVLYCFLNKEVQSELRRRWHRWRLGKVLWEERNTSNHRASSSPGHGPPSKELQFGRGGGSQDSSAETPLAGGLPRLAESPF
Chain of Human GLP-1R (P43220 24-463, species assumed): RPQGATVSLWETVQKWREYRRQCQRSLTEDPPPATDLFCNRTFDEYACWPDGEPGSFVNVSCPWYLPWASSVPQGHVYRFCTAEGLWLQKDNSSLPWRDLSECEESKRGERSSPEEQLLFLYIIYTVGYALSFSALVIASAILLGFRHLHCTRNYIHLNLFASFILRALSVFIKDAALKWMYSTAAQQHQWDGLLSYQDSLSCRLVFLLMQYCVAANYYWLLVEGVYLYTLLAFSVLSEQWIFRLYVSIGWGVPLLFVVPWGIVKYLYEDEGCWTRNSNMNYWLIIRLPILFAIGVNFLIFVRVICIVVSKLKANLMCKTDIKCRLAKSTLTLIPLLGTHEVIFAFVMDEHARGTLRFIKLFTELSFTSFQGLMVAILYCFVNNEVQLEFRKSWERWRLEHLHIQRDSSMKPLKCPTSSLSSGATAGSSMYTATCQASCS

Row | SMILES | GLP-1 receptor activity EC50 relative to wild-type GLP-1 [1] [%] | GCG receptor relative activity EC50 [2] [%] | body weight, blood lipids, and levels of ALT and AST ([3]; 100-300 μg compared to liraglutide) | reduction of HbA1c ([3]; each dose group compared to liraglutide) | hypoglycemic effect ([4]; 1 mg dose vs Dulaglutide 1.5 mg) | weight loss effect ([4]; 1 mg dose) | Weight change ([5]; 3 nmol/kg s.c. Q3D for 15 days) [%] | Weight change ([5]; 10 nmol/kg s.c. Q3D for 15 days) [%] | Weight change ([5]; 30 nmol/kg s.c. Q3D for 15 days) [%] | LDL-C ([5]; 3 nmol/kg) [mM] | TC (total cholesterol) ([5]; 3 nmol/kg) [mM] | TG (plasma triglycerides) ([5]; 3 nmol/kg) [mM] | LDL-C ([5]; 30 nmol/kg) [mM] | TC (total cholesterol) ([5]; 30 nmol/kg) [mM] | TG (plasma triglycerides) ([5]; 30 nmol/kg) [mM]
1 | CCCCCCCCCCCCCCCC(=O)N[C@@H](CCC(=O)NCCCC[C@H](NC(=O)[C@H](CC(=O)O)NC(=O)[C@H](CO)NC(=O)[C@@H](NC(=O)[C@H](Cc1ccccc1)NC(=O)[C@@H](NC(=O)CNC(=O)[C@H](CCC(N)=O)NC(=O)[C@H](CO)NC(=O)[C@@H](N)Cc1c[nH]cn1)[C@@H](C)O)[C@@H](C)O)C(=O)N[C@@H](CO)C(=O)N[C@@H](CCC(=O)O)C(=O)N[C@@H](Cc1ccc(O)cc1)C(=O)N[C@@H](CC(C)C)C(=O)N[C@@H](CC(=O)O)C(=O)N[C@@H](CO)C(=O)N[C@@H](CCC(=O)O)C(=O)N[C@@H](CCCNC(=N)N)C(=O)N[C@@H](C)C(=O)N[C@@H](CCCNC(=N)N)C(=O)N[C@@H](CC(=O)O)C(=O)N[C@@H](Cc1ccccc1)C(=O)N[C@H](C(=O)N[C@@H](C)C(=O)N[C@@H](Cc1c[nH]c2ccccc12)C(=O)N[C@@H](CC(C)C)C(=O)N[C@@H](CCC(=O)O)C(=O)N[C@@H](C)C(=O)NCC(=O)NCC(=O)O)C(C)C)C(=O)O [Cotadutide] | 29 | 12.8 | dose-dependent reduction | no significant advantage |  |  |  |  |  |  |  |  |  |  | 
2 | CC[C@H](C)[C@H](NC(=O)[C@H](CC(C)C)NC(=O)[C@H](Cc1c[nH]c2ccccc12)NC(=O)[C@H](CCC(N)=O)NC(=O)[C@@H](NC(=O)[C@H](Cc1ccccc1)NC(=O)[C@H](C)NC(=O)[C@H](CCCCNC(=O)COCCOCCNC(=O)COCCOCCNC(=O)CC[C@H](NC(=O)CCCCCCCCCCCCCCCCCCC(=O)O)C(=O)O)NC(=O)[C@H](CCC(N)=O)NC(=O)[C@H](C)NC(=O)[C@@H](NC(=O)[C@H](CCCCN)NC(=O)[C@H](CC(=O)O)NC(=O)[C@H](CC(C)C)NC(=O)C(C)(C)NC(=O)[C@@H](NC(=O)[C@H](CO)NC(=O)[C@H](Cc1ccc(O)cc1)NC(=O)[C@H](CC(=O)O)NC(=O)[C@H](CO)NC(=O)[C@@H](NC(=O)[C@H](Cc1ccccc1)NC(=O)[C@@H](NC(=O)CNC(=O)[C@H](CCC(=O)O)NC(=O)C(C)(C)NC(=O)[C@@H](N)Cc1ccc(O)cc1)[C@@H](C)O)[C@@H](C)O)[C@@H](C)CC)[C@@H](C)CC)C(C)C)C(=O)N[C@@H](C)C(=O)NCC(=O)NCC(=O)N1CCC[C@H]1C(=O)N[C@@H](CO)C(=O)N[C@@H](CO)C(=O)NCC(=O)N[C@@H](C)C(=O)N1CCC[C@H]1C(=O)N1CCC[C@H]1C(=O)N1CCC[C@H]1C(=O)N[C@@H](CO)C(N)=O [Tirzepatide, reference compound] |  |  |  |  | significantly lower than that of Dulaglutide 1.5 mg | almost no weight loss effect | −16.1 ± 0.71 | −21.6 ± 0.99 | −32.6 ± 1.60 | 0.62 ± 0.065 | 4.12 ± 0.322 | 0.97 ± 0.050 | 0.57 ± 0.057 | 3.28 ± 0.259 | 0.79 ± 0.068
